{
  "source": "patent US11046721B2",
  "about": "“Ruthenium-based photolinkers and methods of use” (The Trustees of the University of Pennsylvania, priority 2014, dated 2021)",
  "key": {"notail (ntl)": {"system": "notail (ntl)", "experiment": "ntl knockdown phenotype in microinjected zebrafish embryos", "format": "in vivo", "details": "0.25 mM injected at 1-cell stage, 24 hpf", "experimental": "(§1) FIG. 16A is an image of a wildtype embryo, uninjected. […] All embryos were injected at 1-cell stage. […] MO Control: Zebrafish embryos were injected at the 1-cell stage with 0.25 mM ntl-MO and imaged at 24 hpf. Ru-MO-ntl: Zebrafish embryos were injected at the 1-cell stage with 0.25 mM Ru-MO-ntl. Half of the embryos were irradiated (450 nm, 14 mW/cm^2, 5 min) at 1 hpf, while the other half were incubated in the dark. Embryos were scored for phenotype at 24 hpf and compared to wildtype.\nFIG. 17 is a series of images depicting zebrafish, including the ntl-MO knockdown phenotype. Zebrafish embryos were injected at the 1-cell stage with 0.25 mM ntl-MO and imaged at 24 hpf. […] Class 2 was identified by U-shaped somites, a shortened posterior axis, with the notochord still present.\nFIG. 19 is a graph depicting Ru-cMO-ntl in vivo data. MO Control:Zebrafish embryos were injected at the 1-cell stage with 0.25 mM ntl-MO and imaged at 24 hpf. Ru-cMO-ntl:Zebrafish embryos were injected at the 1-cell stage with 0.25 mM Ru-cMO-ntl. Half of the embyros were irradiated (450 nm, 14 mW/cm^2, 5 min) at 1 hpf, while the other half were incubated in the dark. Embryos were scored for phenotype at 24 hpf and compared to wildtype.\nZebrafish embryos were obtained. All embryos obtained were TLF×TLF WT. […]"}, "[1]": {"details": "450-nm light, 53 mW/cm^2, 80 μM, 1.5 mL, stirred", "method": "Light source: 450 nm laser (14 mW/cm^2), 14 μM RuBEP in water, 0.2 OD.\nA sapphire Galaxy Blue handheld laser was purchased from Beam of Light Technologies (Oregon, USA) and used to determine the quantum yield of RuBEP. Measured power at the sample was 53 mW/cm^2, with a maximum output wavelength of 450 nm.\nPhotodissociation of 3EP from RuBEP was monitored by LCMS (FIG. 4), UV-Vis (FIG. 6B) and ^1H and ^13C NMR (FIG. 5) spectroscopies. Upon continuous irradiation with 450-nm light (53 mW/cm^2, focused to 0.5 cm^2), the λmax red-shifted from 450 nm to 473 nm (FIG. 6B).\nThe formula for fitting the initial kinetics of the photoreaction is as follows:\n[formula] Where: P1=net power of the laser during the trial (mW) E=energy of 450 nm light (J/photon) εs=extinction coefficient of RuBEP (starting material) at 475 nm=1800 M^−1cm^−1 εp=extinction coefficient of Rubpy2(3EP)(H2O)(product) at 475 nm=3800 M^−1cm^−1"}, "[2]": {"experiment": "Selective photoactivation of Ru photolinkers (FIG. 25B)", "format": "physicochemical", "description": "FIG. 25, comprising FIG. 25A-25B, depicts exemplary compounds of the invention.\nCompounds [Ru(bpy)2(4-pentynenitrile)2][Cl]2 (Ru420) and [Ru(biq)2(4-pentynenitrile)2][Cl]2 (Ru530) are compounds of the invention which are useful for multiplexing of DNA and morpholino oligonucleotides (FIG. 25A)."}, "chordin (chd)": {"system": "chordin (chd)", "experiment": "chd knockdown phenotype in microinjected zebrafish embryos", "format": "in vivo", "details": "incubated in the dark; for Phenotype of embryos: injected at 1-cell stage, 24-28 hpf", "experimental": "FIG. 15 is a series of images depicting zebrafish, including the chd-MO knockdown phenotype. Zebrafish embryos were injected at the 1-cell stage with 0.51 mM chd-MO and imaged at 24 hpf. […] Embryos scored as normal had V-shaped somites, and normal head and tail development. Severe was identified by decreased head size, U-shaped somites, and a large blood island on the tail. The moderate and mild phenotypes were identified by U-shaped somites and a medium or small blood island on the tail.\nas §1\nZebrafish embryos were obtained. All embryos obtained were TLF×TLF WT. Zebrafish embryo injection solutions were prepared to contain a final concentration of 0.1 M KCl and 0.25% phenol red dye. All injections were performed at the one-cell stage and injected into the cell compartment only. A Harvard Apparatus PLI-100 pico-injector was used to inject controlled volumes. Injection volume was calibrated to dispense 5 nL per embryo. Zebrafish embryos were incubated at 28° C. in E3 zebrafish medium. […]\nMO-chd or Ru-cMO-chd (514 pmol/μL) was microinjected into 1-cell-stage zebrafish embryos, which were incubated at 28° C. in the dark and at 24 hours post-fertilization (hpf), scored for phenotypic response and imaged using a previously reported method (Westerfield, from “The Zebrafish Book. A guide for the Laboratory Use of Zebrafish (Danio rerio).” 4th ed.; University of Oregon Press, 2000). Embryos scored as normal had V-shaped somites, and normal head and tail development. […]"}, "[3]": {"details": "reported, Zayat et al. 2003; cited from earlier work"}},
  "data": [
    {"compound": "ntl-MO: linear antisense morpholino targeting notail, AGCTTGAGATAAGTCCGACGATCCT (SEQ ID NO: 7) (all phosphorodiamidate morpholino (PMO))", "values": [
      {"measurement": "ntl knockdown phenotype", "setting": "notail (ntl)", "value": "severe (class 4) to mild (class 2)"}
    ]},
    {"compound": "[Ru(bipyridine)2(3-ethynyl- pyridine)2]^2+ [RuBEP]", "values": [
      {"measurement": "Time to complete photolysis of bulk solution", "setting": "[1]", "value": 5, "unit": "min"},
      {"measurement": "Selective activation", "setting": "[2]", "value": "can be selectively activated"}
    ]},
    {"compound": "MO-chd: linear antisense morpholino targeting chordin, ATCCACAGCAGCCCCTCCATCATCC (SEQ ID NO: 4) (all phosphorodiamidate morpholino (PMO))", "values": [
      {"measurement": "Embryos with normal phenotype", "setting": "chordin (chd); MO-chd control injections, 24 hpf", "value": "~5", "unit": "%"},
      {"measurement": "Phenotype of embryos", "setting": "chordin (chd); listed as Bis-azido chd-MO", "value": "chd knockdown phenotype"},
      {"measurement": "Phenotype of embryos", "setting": "chordin (chd); listed as chd-MO", "value": "severe to mild"}
    ]},
    {"compound": "[Ru(biquinoline)2(4- pentynenitrile)2]^2+ [Ru530]", "values": [
      {"measurement": "Selective activation", "setting": "[2]", "value": "can be selectively activated"}
    ]},
    {"compound": "[Cl-].[Cl-].[Ru+2].c1ccc(-c2ccccn2)nc1.c1ccc(-c2ccccn2)nc1.c1ccncc1.c1ccncc1", "note": "[Ru(bpy)2(pyr)2Cl2]", "values": [
      {"measurement": "Quantum yield of ligand exchange", "setting": "[3]", "value": 0.4}
    ]},
    {"compound": "[Ru(bipyridine)2(4- pentynenitrile)2]^2+ [Ru420]", "values": [
      {"measurement": "Selective activation", "setting": "[2]", "value": "can be selectively activated"}
    ]}
  ]
}
